According to patent publication US20160272992A1, “PROTECTION OF PLANTS AGAINST OXIDATIVE STRESS” (priority 2013, published 2016):

How the values were obtained:
SIM/SMR promoters = assay: SIM/SMR promoter:GUS transcriptional reporter lines; type: in vivo, Arabidopsis thaliana
Source text: SIM/SMR promoter sequences were amplified from genomic DNA by PCR using the primers described in Table 5. The product fragments were created with the Pfu DNA Polymerase Kit (Promega, Catalog #M7745), and were cloned into a pDONR P4-Plr entry vector by BP recombination cloning and subsequently transferred into the pMK7S*NFml4GW,0 destination vector by LR cloning, resulting in a transcriptional fusion between the promoter of the SMR genes and the nlsGFP-GUS fusion gene (Karimi et al., 2007). For the overexpression constructs, the SMR coding regions were amplified using primers described in Table 5, and cloned into the pDONR221 vector by BP recombination cloning and subsequently transferred into the pK2GW7 destination vector (Kamimi et al., 2002) by LR cloning. All constructs were transferred into the Agrobacterium tumefaciens C58C1RifR strain harboring the pMP90 plasmid. The obtained Agrobacterium strains were used to generate stably transformed Arabidopsis lines with the floral dip transformation method (Clough and Bent, 1998). Transgenic plants were obtained on kanamycin-containing medium and later transferred to soil for optimal seed production.
Complete seedlings or tissue cuttings were stained in multiwell plates (Falcon 3043; Becton Dickinson). GUS assays were performed as described by Beeckman and Engler (1994). Samples mounted in lactic acid were observed and photographed with a stereomicroscope (Olympus BX51 microscope) or with a differential interference contrast (DIC) microscope (Leica).
To confirm involvement of SIM/SMR genes in the genotoxic stress response, transcriptional reporter lines containing the putative upstream promoter sequences were constructed for all. After selection of representative reporter lines, one-week-old seedlings were transferred to control medium, or medium supplemented with HU (resulting into stalled replication forks) or bleomycin (causing DSBs).

[1] = system: root meristem material of seedlings; conditions: 0.3 μg/mL bleomycin for 24 hours
Protocol: Seeds were plated on sterilized membranes and grown under a 16-hour light/8-hour dark regime at 21° C. After 2 days of germination and 5 days of growth, the membrane was transferred to MS medium containing 0.3 μg/mL bleomycin for 24 hours. Triplicate batches of root meristem material seedlings were harvested for total RNA preparation using the RNEASY® plant mini kit (Qiagen). Each of the different root tip RNA extracts were hybridized to 12 AFFYMETRIX® Arabidopsis Gene 1.0 ST Arrays according to manufacturer's instructions at the Nucleomics Core Facility (Leuven, Belgium; World Wide Web at nucleomics.be). Raw data were processed with the RMA algorithm (Irizarry et al., 2003) using the AFFYMETRIX® Power Tools and subsequently subjected to a Significance Analysis of Microarray (SAM) analysis with “MultiExperiment Viewer 4” (MeV4) of The Institute for Genome Research (TIGR) (Tusher et al., 2001). The imputation engine was set as 10-nearest neighbor imputer and the number of permutations was 100. Expression values were obtained by log 2-transforming the average value of the normalized signal intensities of the triplicate samples. Fold changes were obtained using the expression values of the treatment relative to the control samples. Genes with Q-values<0.1 and fold change>1.5 or <0.666 were retained for further analysis.

[2] = root meristem, treatment relative to control

## bleomycin
SIM/SMR promoters; one-week-old seedlings, 0.3 μg/mL bleomycin, GUS assay after 24 hours
  induction of SMR6 reporter in root tips: weak cell-specific induction
SIM/SMR promoters; treated for 24 hours
  induction of SMR5 and SMR7 GUS reporters in the proliferating leaf: induced
[1]; [2]
  Bleomycin fold change, AT1G07500 (Siamese-related 5): 1.595
  Bleomycin fold change, AT1G13330 (Hop2 homolog): 1.580
  Bleomycin fold change, AT1G17460 (TRF-like 3): 1.681
  Bleomycin fold change, AT1G49030 (PLAC8 family protein): 2.653
  Bleomycin fold change, AT2G18600 (Ubiquitin-conjugating enzyme family protein): 1.972
  Bleomycin fold change, AT2G45460 (SMAD/FHA domain-containing protein): 1.575
  Bleomycin fold change, AT2G46610 (RNA-binding RRM/RBD/RNP motifs family protein): 1.546
  Bleomycin fold change, AT3G07800 (Thymidine kinase): 2.759
  Bleomycin fold change, AT3G25250 (AGC kinase family protein): 1.517
  Bleomycin fold change, AT3G27060 (Ferritin/ribonucleotide reductase-like family protein): 1.970
  Bleomycin fold change, AT3G27620 (alternative oxidase 1C): 1.883
  Bleomycin fold change, AT3G27950 (GDSL-like Lipase/Acylhydrolase superfamily protein): 4.012
  Bleomycin fold change, AT4G02390 (Poly(ADP-ribose) polymerase): 2.663
  Bleomycin fold change, AT4G04750 (Major facilitator superfamily protein): 1.689
  Bleomycin fold change, AT4G05370 (BCS1 AAA-type ATPase): 1.807
  Bleomycin fold change, AT4G15480 (UDP-Glycosyltransferase superfamily protein): 2.394
  Bleomycin fold change, AT4G21070 (Breast cancer susceptibility1): 2.386
  Bleomycin fold change, AT4G22960 (Unknown function DUF544): 2.282
  Bleomycin fold change, AT5G03780 (TRF-like 10): 1.600
  Bleomycin fold change, AT5G14920 (Gibberellin-regulated family protein): 2.122
  Bleomycin fold change, AT5G20850 (RAS associated with diabetes protein 51): 1.765
  Bleomycin fold change, AT5G24280 (Gamma-irradiation and mitomycin c induced 1): 2.584
  Bleomycin fold change, AT5G25810 (Integrase-type DNA-binding superfamily protein): 1.573
  Bleomycin fold change, AT5G40840 (Rad21/Rec8-like family protein): 1.692
  Bleomycin fold change, AT5G48720 (X-ray induced transcript 1): 2.228
  Bleomycin fold change, AT5G49110 (unknown protein): 1.562
  Bleomycin fold change, AT5G49480 (Ca2+-binding protein 1): 1.580
  Bleomycin fold change, AT5G55490 (Gamete expressed protein 1): 2.407
  Bleomycin fold change, AT5G60100 (pseudo-response regulator 3): 1.801
  Bleomycin fold change, AT5G60250 (Zinc finger C3HC4-type RING finger family protein): 2.352
  Bleomycin fold change, AT5G64060 (NAC domain containing protein 103): 2.153
  Bleomycin fold change, AT5G66130 (RADIATION SENSITIVE 17): 1.627
  Bleomycin fold change, AT5G66985 (unknown protein): 1.612
[1]; Aragene array
  induction of SMR7 (At3g27630) in the bleomycin experiment: 5.68 fold
